Test results as given in patent publication US12018011B2, “Macrocyclic compounds and compositions, and methods of preparing and using the same” (Kura Oncology, Inc., priority 2021, dated 2024).

How the values were obtained:
[1] = molecular target: T1, Recombinant human farnesyl transferase (FTase) (Homo sapiens, UniProt P49356); test: FTase fluorescence assay (farnesylation of dansyl-GCVLS peptide); format: biochemical; conditions: recombinant human FTase 2.5 nM, Dansyl-GCVLS 85 nM, FPP 30 nM, 30° C., 50 minutes
T1 construct: purchased Crelux (Martinsried, Germany)

T24/83 cells = test: T24/83 cell proliferation assay (CellTiter-Glo); format: cell-based; conditions: Homo sapiens, 96 h, 4 days
Text: T24/83 cell line was purchased from the European Collection of Authenticated Cell Cultures (Salisbury, UK). Recombinant human farnesyl transferase (FTase) and geranylgeranyl transferase type-1 (GGTase) were obtained from Crelux (Martinsried, Germany). Dansyl labelled GCVLS peptide was purchased from Bachem (Torrance, CA), and Dansyl labelled GCVLL peptide was purchased from Bio Synthesis (Lewisville, TX). Farnesyl Pyrophosphate (FPP) and Geranylgeranyl pyrophosphate (GGPP) were purchased from Cayman (Ann Arbor, MI).
Mutant oncogenic HRAS was originally identified in a human bladder carcinoma cell line called T24. T24/83 is a subline of T24 established more recently that has more favorable growth characteristics for in vitro assays. Thus, T24/83 is a well-characterized mutant HRAS-dependent cell line that is an ideal model for quantifying the HRAS-dependent antitumor activity of farnesyltransferase inhibitors.
T24/83 cells were inoculated into 384 well plates at 100 cells/well, and grown in the presence of inhibitor, 0.7% DMSO as a negative control, or 100 μM tipifarnib as a positive control, at 37° C. for 4 days. Cell viability was assessed using the CellTiter-Glo Kit (CTG) (Promega; Madison, WI). Luminescence was recorded using EnVision microplate reader (PerkinElmer; Waltham, MA). In this assay, tipifarmib was used as a positive control. All the assay plates passed the QC criteria (S/B, Z-factor).

Compound | IC50 [1] [nM] | IC50 (T24/83 cells) [nM]
Cn1cncc1C1(O)c2ccc(Cl)c(c2)OCCc2cccc(c2)-c2cc(=O)[nH]c3ccc1cc23 (racemic) [Compound 25, (rac)-4^4-chloro-3-hydroxy-3-(1-methyl-1H-imidazol-5-yl)-2^1,2^2-dihydro-5-oxa-2(4,6)-quinolina-1,4(1,3)-dibenzenacycloheptaphan-2^2-one] | ≤ 10 | 50 to 500
Cn1cncc1[C@@]1(N)c2ccc(C#N)c(c2)OCc2cccc(c2)-c2cc(=O)n(C)c3ccc1cc23 [(S)-19, (S)-3-amino-2^1-methyl-3-(1-methyl-1H-imidazol-5-yl)-2^2-oxo-2^1,2^2-dihydro-5-oxa-2(4,6)-quinolina-1,4(1,3)-dibenzenacyclohexaphane-4^4-carbonitrile] | ≤ 10 | ≤ 50
Cn1cncc1[C@@]1(N)c2ccc(C#N)c(c2)COc2cccc(c2)-c2cc(=O)n(CC(O)CO)c3ccc1cc23 (stereo partly drawn) [(S)-69, (3S)-3-amino-2^1-(2,3-dihydroxypropyl)-3-(1-methyl-1H-imidazol-5-yl)-2^2-oxo-2^1,2^2-dihydro-6-oxa-2(4,6)-quinolina-1,4(1,3)-dibenzenacyclohexaphane-4^4-carbonitrile] | ≤ 10 | > 500
Cn1cncc1C1(O)c2cccc(c2)CCc2cccc(c2)-c2cc(=O)n(C)c3ccc1cc23 (centres unmarked) [Compound 2, 3-hydroxy-2^1-methyl-3-(1-methyl-1H-imidazol-5-yl)-2^1,2^2-dihydro-2(4,6)-quinolina-1,4(1,3)-dibenzenacyclohexaphan-2^2-one] | 10 to 100 | 50 to 500
Cn1cncc1C1(O)c2cccc(c2)OCc2cccc(c2)-c2cc(=O)n(C)c3ccc1cc23 (centres unmarked) [Compound 11, 3-hydroxy-2^1-methyl-3-(1-methyl-1H-imidazol-5-yl)-2^1,2^2-dihydro-5-oxa-2(4,6)-quinolina-1,4(1,3)-dibenzenacyclohexaphan-2^2-one] | ≤ 10 | > 500
Cn1cncc1C1(O)c2ccc(Cl)c(c2)OCc2cccc(c2)-c2cc(=O)[nH]c3ccc1cc23 (centres unmarked) [Compound 13, 4^4-chloro-3-hydroxy-3-(1-methyl-1H-imidazol-5-yl)-2^1,2^2-dihydro-5-oxa-2(4,6)-quinolina-1,4(1,3)-dibenzenacyclohexaphan-2^2-one] | 10 to 100 | 50 to 500
Cn1cncc1C1(O)c2cccc(c2)OCCc2cccc(c2)-c2cc(=O)[nH]c3ccc1cc23 (centres unmarked) [Compound 22, 3-hydroxy-3-(1-methyl-1H-imidazol-5-yl)-2^1,2^2-dihydro-5-oxa-2(4,6)-quinolina-1,4(1,3)-dibenzenacycloheptaphan-2^2-one] | 10 to 100 | 50 to 500
Cn1cncc1C1(O)c2cccc(c2)OCCc2cccc(c2)-c2cc(=O)n(C)c3ccc1cc23 (centres unmarked) [Compound 23, 3-hydroxy-2^1-methyl-3-(1-methyl-1H-imidazol-5-yl)-2^1,2^2-dihydro-5-oxa-2(4,6)-quinolina-1,4(1,3)-dibenzenacycloheptaphan-2^2-one] | ≤ 10 | ≤ 50
COc1cc2c3cc(ccc3n1)C(O)(c1cncn1C)c1ccc(Cl)c(c1)OCCc1cccc-2c1 (centres unmarked) [Compound 24, 4^4-chloro-2^2-methoxy-3-(1-methyl-1H-imidazol-5-yl)-5-oxa-2(4,6)-quinolina-1,4(1,3)-dibenzenacycloheptaphan-3-ol] | > 100 | > 500
Cn1cncc1C1(O)c2ccc(Cl)c(c2)OCCc2cccc(c2)-c2cc(=O)n(C)c3ccc1cc23 (centres unmarked) [Compound 26, 4^4-chloro-3-hydroxy-2^1-methyl-3-(1-methyl-1H-imidazol-5-yl)-2^1,2^2-dihydro-5-oxa-2(4,6)-quinolina-1,4(1,3)-dibenzenacycloheptaphan-2^2-one] | 10 to 100 | 50 to 500

Other lines, results leading:

IC50 [1] [nM] | IC50 (T24/83 cells) [nM] | Compound
> 100 | 50 to 500 | COc1cc2c3cc(ccc3n1)C(O)(c1cncn1C)c1cccc(c1)COc1cccc-2c1 (centres unmarked) [Compound 40, 2^2-methoxy-3-(1-methyl-1H-imidazol-5-yl)-6-oxa-2(4,6)-quinolina-1,4(1,3)-dibenzenacyclohexaphan-3-ol]
10 to 100 | 50 to 500 | Cn1cncc1C1(O)c2cccc(c2)COc2cccc(c2)-c2cc(=O)[nH]c3ccc1cc23 (centres unmarked) [Compound 41, 3-hydroxy-3-(1-methyl-1H-imidazol-5-yl)-2^1,2^2-dihydro-6-oxa-2(4,6)-quinolina-1,4(1,3)-dibenzenacyclohexaphan-2^2-one]
≤ 10 | ≤ 50 | Cn1cncc1C1(O)c2cccc(c2)COc2cccc(c2)-c2cc(=O)n(C)c3ccc1cc23 (centres unmarked) [Compound 42, 3-hydroxy-2^1-methyl-3-(1-methyl-1H-imidazol-5-yl)-2^1,2^2-dihydro-6-oxa-2(4,6)-quinolina-1,4(1,3)-dibenzenacyclohexaphan-2^2-one]
≤ 10 | 50 to 500 | Cn1cncc1C1(O)c2ccc(Cl)c(c2)COc2cccc(c2)-c2cc(=O)[nH]c3ccc1cc23 (centres unmarked) [Compound 44, 4^4-chloro-3-hydroxy-3-(1-methyl-1H-imidazol-5-yl)-2^1,2^2-dihydro-6-oxa-2(4,6)-quinolina-1,4(1,3)-dibenzenacyclohexaphan-2^2-one]
10 to 100 | > 500 | COc1cc2c3cc(ccc3n1)C(O)(c1cncn1C)c1cnc(C#N)c(c1)COc1cccc-2c1 (centres unmarked) [Compound 60, 3-hydroxy-2^2-methoxy-3-(1-methyl-1H-imidazol-5-yl)-6-oxa-2(4,6)-quinolina-4(3,5)-pyridina-1(1,3)-benzenacyclohexaphane-4^6-carbonitrile]
≤ 10 | 50 to 500 | [2H]C([2H])([2H])n1c(=O)cc2c3cc(ccc31)C(O)(c1cncn1C)c1cnc(C#N)c(c1)COc1cccc-2c1 (centres unmarked) [Compound 61, 3-hydroxy-2^1-(methyl-d3)-3-(1-methyl-1H-imidazol-5-yl)-2^2-oxo-2^1,2^2-dihydro-6-oxa-2(4,6)-quinolina-4(3,5)-pyridina-1(1,3)-benzenacyclohexaphane-4^6-carbonitrile]
≤ 10 | > 500 | [2H]C([2H])([2H])n1c(=O)cc2c3cc(ccc31)C(N)(c1cncn1C)c1cnc(C#N)c(c1)COc1cccc-2c1 (centres unmarked) [Compound 62, 3-amino-2^1-(methyl-d3)-3-(1-methyl-1H-imidazol-5-yl)-2^2-oxo-2^1,2^2-dihydro-6-oxa-2(4,6)-quinolina-4(3,5)-pyridina-1(1,3)-benzenacyclohexaphane-4^6-carbonitrile]
≤ 10 | 50 to 500 | Cn1cncc1C1(O)c2ccc(C#N)c(c2)COc2cccc(c2)-c2cc(C#N)nc3ccc1cc23 (centres unmarked) [Compound 72, 3-hydroxy-3-(1-methyl-1H-imidazol-5-yl)-6-oxa-2(4,6)-quinolina-1,4(1,3)-dibenzenacyclohexaphane-2^2 4^4-dicarbonitrile]
10 to 100 | 50 to 500 | Cn1cncc1C1(O)c2ccc(C#N)c(c2)COc2cccc(c2)-c2cc(C(N)=O)nc3ccc1cc23 (centres unmarked) [Compound 73, 4^4-cyano-3-hydroxy-3-(1-methyl-1H-imidazol-5-yl)-6-oxa-2(4,6)-quinolina-1,4(1,3)-dibenzenacyclohexaphane-2^2-carboxamide]
